System: P. falciparum 3D7 growth, pLDH absorbance
Experiment: P. falciparum 3D7 growth inhibition, dose response, strain 3D7 (AID 2305)

| Structure (SMILES) | IC50 [nM] |
| --- | --- |
| Cc1ccc(CNC(=O)c2ccc(CN3CCCN(Cc4ccsc4)CC3)cc2)cc1 | 870 |
| CSC1=NC(=Nc2c(C)cccc2C)C2(CCC(C(C)(C)C)CC2)N1c1ccc(O)cc1 (centres undefined) | 250 |
| O=C(Nc1cccc(-c2nn3ccccc3c2-c2ccnc(Nc3cccc(C(F)(F)F)c3)n2)c1)c1c(F)cccc1F | 630 |
| COc1cc(NC(=O)N2CCc3cc(OC)c(OCCN4CCCCC4)cc32)cc(C(F)(F)F)c1 | 1150 |
| Cc1cc(NN=Cc2cccc(Cl)c2)c2ccc(F)cc2n1 | 240 |
| O=C(/C=C/c1ccc(Cl)c(Cl)c1)Nc1cccc(CN2CCC(c3c[nH]c4ccc(O)cc34)CC2)c1 | 940 |
| O=c1cc(NCCCNCc2cccc(C(F)(F)F)c2Cl)[nH]c2ccccc12 | 800 |
| O=C(NCCCCN1CCC(c2ccc([N+](=O)[O-])cc2)CC1)c1ccc(NC(=O)c2ccc(Cl)cc2)cc1 | 760 |
| COc1ccc(Cc2c(C)nc3nc(N)nc(N)c3c2C)cc1 | 280 |
| Cc1cc(N2CCCCC2)nc2ccc(NC(=O)c3cncc(Br)c3)cc12 | 720 |
| CC(C)NCc1ccc(-c2cccc(NC(=O)c3ccc(Cl)cc3)c2)cc1 | 290 |
| CCc1ccc(CC(C)NCC(O)c2ccccc2)cc1 (centres undefined) | 890 |
| CN(c1cc(NC(=O)c2cccs2)ccn1)C1CCN(Cc2cccc(F)c2)CC1 | 680 |
| O=C(Nc1ccncc1)c1cn(-c2ccccc2)nc1-c1cccs1 | 980 |
| N#Cc1cccc([C@H](O)[C@@H]2CN(CCC3CCCCC3)CC[C@@]2(O)c2ccccc2)c1 | 130 |
| Cc1cc(OCCCN2CCC(NS(=O)(=O)c3cc(Br)c(Cl)s3)CC2)c2ccccc2n1 | 850 |
| Cc1ccc(NC(=O)c2ccc(Cl)c(Cl)c2)cc1-c1ccc(C(=O)Nc2ccncc2)cc1 | 570 |
| CC(C)C(=O)ONC1=NC(C)(C)N(OCCCOc2cc(Cl)c(Cl)cc2Cl)C(NOC(=O)C(C)C)=N1 | 30 |
| CC[C@H]1CN2CC[C@H]1C[C@H]2[C@H](O)c1cc(N2CCCC2)nc2ccc(OC)cc12 | 40 |
| O=C(Nc1nc(-c2ccccn2)cs1)c1ccc(S(=O)(=O)N2CCc3ccccc32)cc1 | 830 |
| O=C(NCc1ccco1)c1ccc(CN2CCN(C(c3ccccc3)c3ccccc3)CC2)cc1 | 790 |
| Cc1cc(I)ccc1Nc1nc2nonc2nc1Nc1ccc(I)cc1C | 510 |
| O=C(Nc1ccc(Oc2ccccc2)cc1)N[C@@H](Cc1ccc(O)cc1)C(=O)NC1CCN(Cc2ccc(O)c([N+](=O)[O-])c2)C1 (some centres undefined) | 1510 |
| Cc1[nH]c2ccccc2c1C1=CCN(CCN2CCOc3c(Br)cccc3C2=O)CC1 | 800 |
| CCc1ccc(N2C(N)=NC(N)=NC2(C)C)cc1 | 10 |

| Structure (SMILES) | IC50 [nM] |
| --- | --- |
| CC(C)c1ccc(-c2noc(SCC(=O)N3CCCCC3C)n2)cc1 (centres undefined) | 1670 |
| O=C(/C=C/c1ccc(Cl)c(Cl)c1)NC1CCC(CN2CCC(c3nc4ccccc4s3)CC2)CC1 (centres undefined) | 1020 |
| CCCC(CNCc1cccc(SC(F)(F)F)c1)CNc1cc(=O)c2ccccc2[nH]1 (centres undefined) | 710 |
| CCCCN(C)CC#Cc1ccc2[nH]c(C)c(Cl)c(=O)c2c1 | 130 |
| O=C(Nc1ccc(-c2cccc(-c3nc4ccc(C(F)(F)F)cc4[nH]3)c2)cc1)c1csnn1 | 800 |
| CCN(CC)CCNc1cc(C)nc(/N=C(\N)Nc2ccc(Cl)cc2)n1 | 130 |
| Oc1ccc(CC2CCCN(c3nc(NCCCOc4ccccc4-c4ccccc4)nc(N4CCNCC4)n3)C2)cc1 (centres undefined) | 920 |
| CN(c1ccc2c(c1)nc(NCc1ccc(F)cc1)n2C)c1ccnc(Nc2ccc(CS(C)(=O)=O)cc2)n1 | 830 |
| CCN(CC)CCCN(Cc1ccc(-c2ccc(C(F)(F)F)cc2)cc1)C(=O)Cn1c(SCc2cccc(F)c2F)cc(=O)c2ccccc21 | 1320 |
| O=C(Nc1ccc(OC2CCN(Cc3ccc(F)cc3)C2)c(Cl)c1)c1ccccc1 (centres undefined) | 790 |
| N#Cc1ccc2c(c1)CCN(CCC1CCC(NC(=O)/C=C/c3nc4ccccc4s3)CC1)CC2 (centres undefined) | 830 |
| CN1CCN(CCCN(Cc2ccc(-c3cccc(CNCc4ccc5c(c4)OCO5)c3)cc2)C(=O)CCC2CCCC2)CC1 | 1010 |
| Cc1nc2ccccc2c(=O)n1NCc1ccc(Cl)c(Cl)c1 | 150 |
| CCCc1cc(C(=O)N[C@@H](Cc2ccccc2)[C@H](O)CNC2CCOCC2)c(F)c(N2CCCCS2(=O)=O)c1 | 170 |
| CC(=O)Nc1ncc(C(=O)Nc2cccc(-c3cccc(-c4nc5ccc(F)cc5[nH]4)c3)c2)s1 | 450 |
| CC(C)NCc1ccc(-c2ccc(NS(=O)(=O)c3cccc4cccnc34)cc2)cc1 | 810 |
| COc1c(C2CCN(CCN3CCC(NC(=O)c4ccc(-c5ccc(C(F)(F)F)cc5)cc4)CC3)CC2)ccc2c1CCCC2 | 1360 |
| Cc1ccc2oc3cc(-c4nn[nH]n4)ccc3c(=O)c2c1 | 90 |
| CCN1C(=O)N(CCC(C)C)C2(CCN(Cc3ccc(OC)cc3O)CC2)C1=O | 870 |
| COc1ccc(C2CC(c3cccs3)=NN2C(=O)CNc2cccc(C#N)c2)cc1OC (centres undefined) | 1450 |
| CC(C)Cn1c(Sc2ccc(C#N)c([N+](=O)[O-])c2)nnc1-c1ccccc1 | 1090 |
| CCCOc1ccc(CCNCCCCNCCc2ccc(OCCC)c3ccccc23)c2ccccc12 | 920 |
| CNC(=O)c1cc(NCCCNCc2ccc(Cl)c(C(F)(F)F)c2)nc2ccccc12 | 930 |
| COc1cccc(OC)c1C(=O)Nc1cccc(-c2nn3ccccc3c2-c2ccnc(Nc3cccc(F)c3)n2)c1 | 750 |

From PubChem BioAssay AID2305 (GlaxoSmithKline (GSK), 2010)
